Laboratory results taken from patent publication US6653301B2, “Pyrazole compounds useful as protein kinase inhibitors” (Vertex Pharmaceuticals Incorporated, priority 2000, dated 2003).

COc1cccc(Nc2nc(Nc3cc(C)n[nH]3)c3ccccc3n2)c1 [IIc-56, [2-(3-Methoxyphenylamino)-quinazolin-4-yl]-(5-methyl-2H-pyrazol-3-yl)-amine]
melting point: 212 to 215 °C
